One series concerns the target T1, human GnRH receptor (Homo sapiens, UniProt P30968).
T1 construct: host or cells: CHO cells stably expressing human GnRH receptor (line established by Prof. Thomas Gudermann)
T1 sequence (P30968 1-328): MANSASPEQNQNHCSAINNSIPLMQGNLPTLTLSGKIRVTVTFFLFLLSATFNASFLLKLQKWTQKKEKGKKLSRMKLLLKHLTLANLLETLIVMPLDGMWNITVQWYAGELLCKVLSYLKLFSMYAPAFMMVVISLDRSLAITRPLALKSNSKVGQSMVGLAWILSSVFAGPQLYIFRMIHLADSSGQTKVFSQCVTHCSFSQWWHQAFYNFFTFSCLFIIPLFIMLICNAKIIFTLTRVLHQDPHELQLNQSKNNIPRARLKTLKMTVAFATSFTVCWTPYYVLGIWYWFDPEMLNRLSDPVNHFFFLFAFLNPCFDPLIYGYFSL
As to the kind of experiment: IP-One HTRF assay with buserelin stimulation. Conditions: CHO cells stably expressing human GnRH receptor; buserelin at EC80; read-out: Potency in IP-One HTRF assay with buserelin (at EC80) stimulation, given as IC50. The class given is cell-based. A digest of the protocol:
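CHO cells stably expressing human GnRH receptor, preincubated 1 h with IP1-d2 at 37 °C, treated with compound and EC80 buserelin (LiCl present) for 1 h at 37 °C; IP1 measured by HTRF (665/620 nm ratio) after lysis 1 h at 22 °C. Ten concentrations, 20 μM–1 nM, duplicate; IC50 by 4-parameter fit.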
(Time-resolved FRET reads energy transfer from a long-lived donor to a nearby acceptor.)

The nature of series [1]: In vivo pharmacokinetics in rats. The following applies: Wistar, rat, plasma, po, male rats, 2 mg/kg p.o.; for bioavailability: AUCnorm intragastral / AUCnorm i.v. (0.5 mg/kg), read-out: F (oral bioavailability). The protocol:
2.4 In Vivo Pharmacokinetics in Rats
For in vivo pharmacokinetic experiments test compounds were administered to male Wistar rats intravenously at a dose of 0.5 mg/kg and intragastral at a dose of 2 mg/kg formulated as solutions using solubilizers such as PEG400 or Solutol in well-tolerated amounts.
For pharmacokinetics after intravenous administration test compounds were given as i.v. bolus and blood samples were taken at 2 min, 8 min, 15 min, 30 min, 45 min, 1 h, 2 h, 4 h, 7 h and 24 h after dosing. […] For pharmacokinetics after intragastral administration test compounds were given intragastral to fasted rats and blood samples were taken at 8 min, 15 min, 30 min, 45 min, 1 h, 2 h, 4 h, 7 h and 24 h after dosing. […] Blood was collected into Lithium-Heparintubes (Monovetten®, Sarstedt) and centrifuged for 15 min at 3000 rpm. An aliquot of 100 μL from the supernatant (plasma) was taken and precipitated by addition of 400 μL cold acetonitril and frozen at −20° C. over night. Samples were subsequently thawed and centrifuged at 3000 rpm, 4° C. for 20 minutes. Aliquots of the supernatants were taken for analytical testing using an Agilent 1200 HPLC-system with LCMS/MS detection. PK parameters were calculated by non-compartmental analysis using a PK calculation software.
PK parameters derived from concentration-time profiles after i.v.: CLplasma: Total plasma clearance of test compound (in L/kg/h); CLblood: Total blood clearance of test compound: CLplasma*Cp/Cb (in L/kg/h) with Cp/Cb being the ratio of concentrations in plasma and blood. PK parameters calculated from concentration time profiles after i.g.: Cmax: Maximal plasma concentration (in mg/L); Cmaxnorm: Cmax divided by the administered dose (in kg/L); Tmax: Time point at which Cmax was observed (in h). Parameters calculated from both, i.v. and i.g. concentration-time profiles: AUCnorm: Area under the concentration-time curve from t=0 h to infinity (extrapolated) divided by the administered dose (in kg*h/L); AUC(0−tlast)norm: Area under the concentration-time curve from t=0 h to the last time point for which plasma concentrations could be measured divided by the administered dose (in kg*h/L); t½: terminal half-life (in h); F: oral bioavailability: AUCnorm after intragastral administration divided by AUCnorm after intravenous administration (in %).

Molecules are shown by their SMILES. pIC50: −log10 of the molar value.

Data on three compounds can be found in US20160052936A1, “SPIROINDOLINE DERIVATIVES FOR USE AS GONADOTROPIN-RELEASING HORMONE RECEPTOR ANTAGONISTS” (BAYER PHARMA AKTIENGESELLSCHAFT, priority 2013, published 2016).

As usually defined, the pIC50 is the negative decadic logarithm of the IC50, by convention in mol/L. Usually half-life stands for the time needed for the level to fall by half in the phase considered. Read a high half-life as slow decline. What is called bioavailability is dose-corrected exposure relative to a reference, in per cent. Consider `O=C(NCc1ncc(C(F)(F)F)cc1F)c1ccc2c(c1)C1(CCS(=O)(=O)CC1)[C@H](C1CC1)N2S(=O)(=O)c1ccc(F)cc1` (single isomer, unassigned) [Example 1.1], for which the pIC50 at human GnRH receptor is 7.03. Also, in series [1], the half-life is 5.2 h and the bioavailability was found to be 32%.
For `N#Cc1cccc(S(=O)(=O)N2c3ccc(C(=O)NCc4ncc(C(F)(F)F)cc4Cl)cc3C3(CCS(=O)(=O)CC3)[C@@H]2C2CC2)c1` (single isomer, unassigned) [Example 10.1], at human GnRH receptor, the pIC50 was 7.85. Besides, in series [1], the half-life is 3.3 h and the bioavailability was found to be 23%.
On the same counts, the results for `O=C(NCc1ncc(C(F)(F)F)cc1Cl)c1ccc2c(c1)C1(CCS(=O)(=O)CC1)[C@H](C1CC1)N2S(=O)(=O)c1ccc(F)cc1` [Example 3.1, (2S)—N-{[3-chloro-5-(trifluoromethyl)pyridin-2-yl]methyl}-2-cyclopropyl-1-[(4-fluorophenyl)sulfonyl]-1,2,2′,3′,5′,6′-hexahydrospiro[indole-3,4′-thiopyran]-5-carboxamide 1′,1′-dioxide] are 7.68, 17 h and 87%.
